Reference: US20160158317A1, “Antimicrobial Peptide Variants and Polynucleotides Encoding Same” (Adenium Biotech A/S, priority 2010, published 2016)
Where a SMILES comes first, the peptide text is derived from it. Bridges are numbered along the chain shown (N, C = ends).

assay: Determination of the protein binding (90% serum, 30 kDa filter, HPLC); type: in vitro ADME; conditions: serum
Protocol: Protein binding assays were performed as follows. The purified peptides were mixed with 90% serum and centrifuged through a 30 kDa filter. The ultra-filtrate and the non filtrated serum samples were quantified by HPLC measurements and the protein binding was subsequently calculated.

Row | SMILES | fraction unbound
1 | CC(C)[C@@H]1NC(=O)CNC(=O)[C@H](CC(N)=O)NC(=O)[C@H](CCCNC(=N)N)NC(=O)[C@H](Cc2ccc(O)cc2)NC(=O)[C@H](C(C)C)NC(=O)[C@@H]2CSSC[C@H](NC(=O)[C@H](CO)NC(=O)[C@H](CCCNC(=N)N)NC1=O)C(=O)N[C@@H](Cc1ccc(O)cc1)C(=O)N[C@@H](CCCNC(=N)N)C(=O)N[C@@H](CCCNC(=N)N)C(=O)N[C@H](C(=O)N[C@@H](CC(N)=O)C(=O)O)CSSC[C@H](NC(=O)[C@H](Cc1ccccc1)NC(=O)CN)C(=O)N[C@@H](C)C(=O)N[C@@H](CCCCN)C(=O)N[C@@H](C(C)C)C(=O)N2 [compound 120] (H-GFCAKVCVYRNGVRSCYRRCN-OH; disulfide 3-20, 7-16 (inferred); N-terminus and C-terminus assumed) | 0.31
2 | CC(C)[C@@H]1NC(=O)CNC(=O)[C@H](CC(N)=O)NC(=O)[C@H](CCCNC(=N)N)NC(=O)[C@H](Cc2ccc(O)cc2)NC(=O)[C@H](C(C)C)NC(=O)[C@@H]2CSSC[C@H](NC(=O)[C@H](CO)NC(=O)[C@H](CCCNC(=N)N)NC1=O)C(=O)N[C@@H](Cc1ccc(O)cc1)C(=O)N[C@@H](CCCNC(=N)N)C(=O)N[C@@H](CCCNC(=N)N)C(=O)N[C@H](C(=O)N[C@@H](CC(N)=O)C(=O)O)CSSC[C@H](NC(=O)[C@H](Cc1ccccc1)NC(=O)CN)C(=O)N[C@@H](C)C(=O)N[C@@H](CCCNC(=N)N)C(=O)N[C@@H](C(C)C)C(=O)N2 [compound 122] (H-GFCARVCVYRNGVRSCYRRCN-OH; disulfide 3-20, 7-16) | 0.19
3 | CC(C)[C@@H]1NC(=O)CNC(=O)[C@H](CC(N)=O)NC(=O)[C@H](CCCNC(=N)N)NC(=O)[C@H](CCCCN)NC(=O)[C@H](C(C)C)NC(=O)[C@@H]2CSSC[C@H](NC(=O)[C@H](C(C)C)NC(=O)[C@H](CCCNC(=N)N)NC1=O)C(=O)N[C@@H](Cc1ccc(O)cc1)C(=O)N[C@@H](CCCNC(=N)N)C(=O)N[C@@H](CCCNC(=N)N)C(=O)N[C@H](C(=O)N[C@@H](CC(N)=O)C(=O)O)CSSC[C@H](NC(=O)[C@H](Cc1ccccc1)NC(=O)CN)C(=O)N[C@@H](C)C(=O)N[C@@H](CCCNC(=N)N)C(=O)N[C@@H](C(C)C)C(=O)N2 [compound 125] (H-GFCARVCVKRNGVRVCYRRCN-OH; disulfide 3-20, 7-16 (inferred); N-terminus and C-terminus assumed) | 0.1
4 | CC(C)[C@@H]1NC(=O)CNC(=O)[C@H](CC(N)=O)NC(=O)[C@H](CCCNC(=N)N)NC(=O)[C@H](CCCCN)NC(=O)[C@H](C(C)C)NC(=O)[C@@H]2CSSC[C@H](NC(=O)[C@H](C(C)C)NC(=O)[C@H](CCCNC(=N)N)NC1=O)C(=O)N[C@@H](Cc1c[nH]cn1)C(=O)N[C@@H](CCCNC(=N)N)C(=O)N[C@@H](CCCNC(=N)N)C(=O)N[C@H](C(=O)N[C@@H](CC(N)=O)C(=O)O)CSSC[C@H](NC(=O)[C@H](Cc1ccccc1)NC(=O)CN)C(=O)N[C@@H](Cc1ccccc1)C(=O)N[C@@H](Cc1ccc(O)cc1)C(=O)N[C@@H](C(C)C)C(=O)N2 [compound 137] (H-GFCFYVCVKRNGVRVCHRRCN-OH; disulfide 3-20, 7-16 (inferred); N-terminus and C-terminus assumed) | 0.14
5 | CC(C)[C@@H]1NC(=O)CNC(=O)[C@H](CC(N)=O)NC(=O)[C@H](CCCNC(=N)N)NC(=O)[C@H](Cc2ccc(O)cc2)NC(=O)[C@H](C(C)C)NC(=O)[C@@H]2CSSC[C@H](NC(=O)[C@H](C(C)C)NC(=O)[C@H](CCCNC(=N)N)NC1=O)C(=O)N[C@@H](Cc1ccc(O)cc1)C(=O)N[C@@H](CCCNC(=N)N)C(=O)N[C@@H](CCCNC(=N)N)C(=O)N[C@H](C(=O)N[C@@H](CO)C(=O)O)CSSC[C@H](NC(=O)[C@H](Cc1ccccc1)NC(=O)CN)C(=O)NCC(=O)N[C@@H](Cc1c[nH]cn1)C(=O)N[C@@H](C(C)C)C(=O)N2 [compound 144] (H-GFCGHVCVYRNGVRVCYRRCS-OH; disulfide 3-20, 7-16 (inferred); N-terminus and C-terminus assumed) | 0.32
6 | CC(C)[C@@H]1NC(=O)CNC(=O)[C@H](CC(N)=O)NC(=O)[C@H](CCCNC(=N)N)NC(=O)[C@H](Cc2ccc(O)cc2)NC(=O)[C@H](C(C)C)NC(=O)[C@@H]2CSSC[C@H](NC(=O)[C@H](CCCNC(=N)N)NC(=O)[C@H](CCCNC(=N)N)NC1=O)C(=O)N[C@@H](Cc1ccc(O)cc1)C(=O)N[C@@H](CCCNC(=N)N)C(=O)N[C@@H](CCCNC(=N)N)C(=O)N[C@H](C(=O)N[C@@H](CC(N)=O)C(=O)O)CSSC[C@H](NC(=O)[C@H](Cc1ccccc1)NC(=O)CN)C(=O)NCC(=O)N[C@@H](Cc1c[nH]cn1)C(=O)N[C@@H](C(C)C)C(=O)N2 [compound 155] (H-GFCGHVCVYRNGVRRCYRRCN-OH; disulfide 3-20, 7-16 (inferred); N-terminus and C-terminus assumed) | 0.17
7 | CC(C)[C@@H]1NC(=O)CNC(=O)[C@H](CC(N)=O)NC(=O)[C@H](CCCNC(=N)N)NC(=O)[C@H](Cc2ccc(O)cc2)NC(=O)[C@H](C(C)C)NC(=O)[C@@H]2CSSC[C@H](NC(=O)[C@H](CCCNC(=N)N)NC(=O)[C@H](CCCNC(=N)N)NC1=O)C(=O)N[C@@H](Cc1ccc(O)cc1)C(=O)N[C@@H](CCCNC(=N)N)C(=O)N[C@@H](CCCNC(=N)N)C(=O)N[C@H](C(=O)N[C@@H](CC(N)=O)C(=O)O)CSSC[C@H](NC(=O)[C@H](Cc1ccccc1)NC(=O)CN)C(=O)NCC(=O)N[C@@H](CCCNC(=N)N)C(=O)N[C@@H](C(C)C)C(=O)N2 [compound 170] (H-GFCGRVCVYRNGVRRCYRRCN-OH; disulfide 3-20, 7-16 (inferred); N-terminus and C-terminus assumed) | 0.13
8 | CC(C)[C@@H]1NC(=O)CNC(=O)[C@H](CC(N)=O)NC(=O)[C@H](CCCNC(=N)N)NC(=O)[C@H](Cc2ccc(O)cc2)NC(=O)[C@H](C(C)C)NC(=O)[C@@H]2CSSC[C@H](NC(=O)[C@H]([C@@H](C)O)NC(=O)[C@H](CCCNC(=N)N)NC1=O)C(=O)N[C@@H](Cc1ccc(O)cc1)C(=O)N[C@@H](CCCNC(=N)N)C(=O)N[C@@H](CCCNC(=N)N)C(=O)N[C@H](C(=O)N[C@@H](CC(N)=O)C(=O)O)CSSC[C@H](NC(=O)[C@H](Cc1ccccc1)NC(=O)CN)C(=O)NCC(=O)N[C@@H](CCCNC(=N)N)C(=O)N[C@@H](C(C)C)C(=O)N2 [compound 171] (H-GFCGRVCVYRNGVRTCYRRCN-OH; disulfide 3-20, 7-16) | 0.16
9 | CC(C)[C@@H]1NC(=O)CNC(=O)[C@H](CC(N)=O)NC(=O)[C@H](CCCNC(=N)N)NC(=O)[C@H](CCCNC(=N)N)NC(=O)[C@H](C(C)C)NC(=O)[C@@H]2CSSC[C@H](NC(=O)[C@H](C(C)C)NC(=O)[C@H](CCCNC(=N)N)NC1=O)C(=O)N[C@@H](Cc1ccc(O)cc1)C(=O)N[C@@H](CCCNC(=N)N)C(=O)N[C@@H](CCCNC(=N)N)C(=O)N[C@H](C(=O)N[C@@H](CC(N)=O)C(=O)O)CSSC[C@H](NC(=O)[C@H](Cc1ccccc1)NC(=O)CN)C(=O)NCC(=O)N[C@@H](CCCNC(=N)N)C(=O)N[C@@H](C(C)C)C(=O)N2 [compound 172] (H-GFCGRVCVRRNGVRVCYRRCN-OH; disulfide 3-20, 7-16 (inferred); N-terminus and C-terminus assumed) | 0.12
10 | CC(C)[C@@H]1NC(=O)CNC(=O)[C@H](CC(N)=O)NC(=O)[C@H](CCCNC(=N)N)NC(=O)[C@H](CCCCN)NC(=O)[C@H](C(C)C)NC(=O)[C@@H]2CSSC[C@H](NC(=O)[C@H](CCCCN)NC(=O)[C@H](CCCNC(=N)N)NC1=O)C(=O)N[C@@H](Cc1ccc(O)cc1)C(=O)N[C@@H](CCCNC(=N)N)C(=O)N[C@@H](CCCNC(=N)N)C(=O)N[C@H](C(=O)N[C@@H](CC(N)=O)C(=O)O)CSSC[C@H](NC(=O)[C@H](Cc1ccccc1)NC(=O)CN)C(=O)N[C@@H]([C@@H](C)O)C(=O)N[C@@H](Cc1ccc(O)cc1)C(=O)N[C@@H](C(C)C)C(=O)N2 [compound 195] (H-GFCTYVCVKRNGVRKCYRRCN-OH; disulfide 3-20, 7-16 (inferred); N-terminus and C-terminus assumed) | 0.05
11 | CC(C)[C@@H]1NC(=O)CNC(=O)[C@H](CC(N)=O)NC(=O)[C@H](CCCNC(=N)N)NC(=O)[C@H](Cc2ccc(O)cc2)NC(=O)[C@H](C(C)C)NC(=O)[C@@H]2CSSC[C@H](NC(=O)[C@H](CO)NC(=O)[C@H](CCCNC(=N)N)NC1=O)C(=O)N[C@@H](Cc1ccc(O)cc1)C(=O)N[C@@H](CCCNC(=N)N)C(=O)N[C@@H](CCCNC(=N)N)C(=O)N[C@H](C(=O)N[C@@H](CC(N)=O)C(=O)O)CSSC[C@H](NC(=O)[C@H](Cc1ccccc1)NC(=O)CN)C(=O)N[C@@H](Cc1ccc(O)cc1)C(=O)N[C@@H](CCCCN)C(=O)N[C@@H](C(C)C)C(=O)N2 [compound 206] (H-GFCYKVCVYRNGVRSCYRRCN-OH; disulfide 3-20, 7-16 (inferred); N-terminus and C-terminus assumed) | 0.14
12 | CC(C)[C@@H]1NC(=O)CNC(=O)[C@H](CC(N)=O)NC(=O)[C@H](CCCNC(=N)N)NC(=O)[C@H](Cc2ccc(O)cc2)NC(=O)[C@H](C(C)C)NC(=O)[C@@H]2CSSC[C@H](NC(=O)[C@H](CCCNC(=N)N)NC(=O)[C@H](CCCNC(=N)N)NC1=O)C(=O)N[C@@H](Cc1ccc(O)cc1)C(=O)N[C@@H](CCCNC(=N)N)C(=O)N[C@@H](CCCNC(=N)N)C(=O)N[C@H](C(=O)N[C@@H](CC(N)=O)C(=O)O)CSSC[C@H](NC(=O)[C@H](Cc1ccccc1)NC(=O)CN)C(=O)N[C@@H](Cc1ccc(O)cc1)C(=O)N[C@@H](CC(N)=O)C(=O)N[C@@H](C(C)C)C(=O)N2 [compound 207] (H-GFCYNVCVYRNGVRRCYRRCN-OH; disulfide 3-20, 7-16 (inferred); N-terminus and C-terminus assumed) | 0.09
13 | CC(C)[C@@H]1NC(=O)CNC(=O)[C@H](CC(N)=O)NC(=O)[C@H](CCCNC(=N)N)NC(=O)[C@H](Cc2ccc(O)cc2)NC(=O)[C@H](C(C)C)NC(=O)[C@@H]2CSSC[C@H](NC(=O)[C@H]([C@@H](C)O)NC(=O)[C@H](CCCNC(=N)N)NC1=O)C(=O)N[C@@H](Cc1ccc(O)cc1)C(=O)N[C@@H](CCCNC(=N)N)C(=O)N[C@@H](CCCNC(=N)N)C(=O)N[C@H](C(=O)N[C@@H](CC(N)=O)C(=O)O)CSSC[C@H](NC(=O)[C@H](Cc1ccccc1)NC(=O)CN)C(=O)N[C@@H](Cc1ccc(O)cc1)C(=O)N[C@@H](CCCNC(=N)N)C(=O)N[C@@H](C(C)C)C(=O)N2 [compound 209] (H-GFCYRVCVYRNGVRTCYRRCN-OH; disulfide 3-20, 7-16 (inferred); N-terminus and C-terminus assumed) | 0.11
